What was measured:
Type in all cases: in vivo
[1] = tested on: Diamond Back Moth (Plutella xylostella); assay: Insecticidal test on diamond back moth (Test Example 1); details: Chinese cabbage seedling with eggs immersed about 30 seconds, hatched insects counted six days after immersion, 25° C.; for Test Example 1: insecticidal effect (mortality criterion): 50 ppm; for mortality at 50 ppm: Plutella xylostella, 144 h, read-out: Test Example 1: insecticidal effect (mortality criterion)
Experimental: Adult diamond back moths were released and allowed to oviposit on a Chinese cabbage seedling. Two days after the release, the seedling having the eggs deposited thereon was immersed for about 30 seconds in a liquid chemical prepared by diluting a preparation containing each compound listed in Tables 1 to 3 as an active ingredient to adjust the concentration to 50 ppm. After air-dryness, it was allowed to stand in a room thermostatted at 25° C. Six days after the immersion, the hatched insects were counted. The mortality was calculated according to the following equation and the insecticidal effect was judged according to the criterion shown below. The test was carried out with triplicate groups of 10 insects.

[2] = tested on: Common Cutworm (Spodoptera litura); assay: Insecticidal test on common cutworm (Test Example 2); details: cabbage leaf immersed about 30 seconds, second-instar larvae, counted eight days after inoculation, 25° C.; for Test Example 2: insecticidal effect (mortality criterion): 50 ppm; for mortality at 50 ppm: Spodoptera litura, 192 h, read-out: Test Example 2: insecticidal effect (mortality criterion)
Experimental: A piece of cabbage leaf (cultivar; Shikidori) was immersed for about 30 seconds in a liquid chemical prepared by diluting a preparation containing each compound listed in Tables 1 to 3 as an active ingredient to adjust the concentration to 50 ppm. After air-dryness, it was placed in a plastic Petri dish with a diameter of 9 cm and inoculated with second-instar larvae of common cutworm, after which the dish was closed and then allowed to stand in a room thermostatted at 25° C. Eight days after the inoculation, the dead and alive were counted. The mortality was calculated according to the following equation and the insecticidal effect was judged according to the criterion shown in Test Example 1. The test was carried out with triplicate groups of 10 insects.

[3] = tested on: Smaller Tea Tortrix (Adoxophyes sp.); assay: Insecticidal test on smaller tea tortrix (Test Example 3); details: 50 ppm; tea leaves immersed about 30 seconds; larvae; counted eight days after inoculation; 25° C., humidity 70%
Experimental: Tea leaves were immersed for about 30 seconds in a liquid chemical prepared by diluting a preparation containing each compound listed in Tables 1 to 3 as an active ingredient to adjust the concentration to 50 ppm. After air-dryness, the tea leaves were placed in a plastic Petri dish with a diameter of 9 cm and inoculated with larvae of smaller tea tortrix, after which the dish was allowed to stand in a room thermostatted at 25° C. and having a humidity of 70%. Eight days after the inoculation, the dead and alive larvae were counted and, the mortality was calculated according to the equation shown in Test Example 2, and the insecticidal effect was judged according to the criterion shown in Test Example 1. The test was carried out with triplicate groups of 10 insects.

## CSCC(C)NC(=O)c1c(I)cccc1C(=O)Nc1ccc(S(F)(F)(F)(F)F)cc1C (stereo not drawn) [1-290]
[1]
  Test Example 1: insecticidal effect (mortality criterion): A (Mortality 100%)
[2]
  Test Example 2: insecticidal effect (mortality criterion): A (Mortality 100%)
[3]
  Test Example 3: insecticidal effect (mortality criterion): A (Mortality 100%)

## Cc1cc(S(F)(F)(F)(F)F)ccc1NC(=O)c1cccc(I)c1C(=O)NC(C)CS(C)(=O)=O (stereo not drawn) [1-292]
[1]
  Test Example 1: insecticidal effect (mortality criterion): A (Mortality 100%)
[2]
  Test Example 2: insecticidal effect (mortality criterion): A (Mortality 100%)
[3]
  Test Example 3: insecticidal effect (mortality criterion): A (Mortality 100%)

## CSCC(C)(C)NC(=O)c1c(I)cccc1C(=O)Nc1ccc(S(F)(F)(F)(F)F)cc1C [1-296]
[1]
  Test Example 1: insecticidal effect (mortality criterion): A (Mortality 100%)
[2]
  Test Example 2: insecticidal effect (mortality criterion): A (Mortality 100%)
[3]
  Test Example 3: insecticidal effect (mortality criterion): A (Mortality 100%)

## Cc1cc(S(F)(F)(F)(F)F)ccc1NC(=O)c1cccc(I)c1C(=O)NC(C)(C)C[S+](C)[O-] (stereo not drawn) [1-297]
[1]
  Test Example 1: insecticidal effect (mortality criterion): A (Mortality 100%)
[2]
  Test Example 2: insecticidal effect (mortality criterion): A (Mortality 100%)
[3]
  Test Example 3: insecticidal effect (mortality criterion): A (Mortality 100%)

## Cc1cc(S(F)(F)(F)(F)F)ccc1NC(=O)c1cccc(I)c1C(=O)NC(C)(C)CS(C)(=O)=O [1-298]
[1]
  Test Example 1: insecticidal effect (mortality criterion): A (Mortality 100%)
[2]
  Test Example 2: insecticidal effect (mortality criterion): A (Mortality 100%)
[3]
  Test Example 3: insecticidal effect (mortality criterion): A (Mortality 100%)

## CSCC(C)(C)NC(=O)c1c(I)cccc1C(=O)Nc1ccc(S(F)(F)(F)(F)F)cc1Cl [1-372, N^1-(2-chloro-4-pentafluorosulfanylphenyl)-N^2-(1,1-dimethyl-2-methylthioethyl)-3-iodophthalamide]
[1]
  mortality at 50 ppm: 100%
[2]
  mortality at 50 ppm: 100%
[3]
  Test Example 3: insecticidal effect (mortality criterion): A (Mortality 100%)

## CC(C)(CS(C)(=O)=O)NC(=O)c1c(I)cccc1C(=O)Nc1ccc(S(F)(F)(F)(F)F)cc1Cl [1-374, N^1-(2-chloro-4-pentafluorosulfanylphenyl)-N^2-(1,1-dimethyl-2-methylsulfonylethyl)-3-iodophthalamide]
[1]
  mortality at 50 ppm: 100%
[2]
  mortality at 50 ppm: 100%
[3]
  Test Example 3: insecticidal effect (mortality criterion): A (Mortality 100%)

## CSCC(C)(C)NC(=O)c1c(I)cccc1C(=O)Nc1ccc(S(F)(F)(F)(F)F)cc1 [1-458]
[1]
  Test Example 1: insecticidal effect (mortality criterion): A (Mortality 100%)
[2]
  Test Example 2: insecticidal effect (mortality criterion): A (Mortality 100%)
[3]
  Test Example 3: insecticidal effect (mortality criterion): A (Mortality 100%)

## CCN(C(=O)c1cccc(I)c1C(=O)NC(C)(C)CSC)c1ccc(S(F)(F)(F)(F)F)cc1 [2-22]
[1]
  Test Example 1: insecticidal effect (mortality criterion): A (Mortality 100%)
[2]
  Test Example 2: insecticidal effect (mortality criterion): A (Mortality 100%)
[3]
  Test Example 3: insecticidal effect (mortality criterion): A (Mortality 100%)

## CCN(C(=O)c1cccc(I)c1C(=O)NC(C)(C)C[S+](C)[O-])c1ccc(S(F)(F)(F)(F)F)cc1 (stereo not drawn) [2-23]
[1]
  Test Example 1: insecticidal effect (mortality criterion): A (Mortality 100%)
[2]
  Test Example 2: insecticidal effect (mortality criterion): A (Mortality 100%)
[3]
  Test Example 3: insecticidal effect (mortality criterion): E (Mortality 49% or less)

## CCN(C(=O)c1cccc(I)c1C(=O)NC(C)(C)CS(C)(=O)=O)c1ccc(S(F)(F)(F)(F)F)cc1 [2-24]
[1]
  Test Example 1: insecticidal effect (mortality criterion): A (Mortality 100%)
[2]
  Test Example 2: insecticidal effect (mortality criterion): A (Mortality 100%)
[3]
  Test Example 3: insecticidal effect (mortality criterion): A (Mortality 100%)

## CSCC(C)(C)NC(=O)c1c(I)cccc1C(=O)Nc1cccc(S(F)(F)(F)(F)F)c1 [3-5]
[1]
  Test Example 1: insecticidal effect (mortality criterion): A (Mortality 100%)
[2]
  Test Example 2: insecticidal effect (mortality criterion): E (Mortality 49% or less)
[3]
  Test Example 3: insecticidal effect (mortality criterion): A (Mortality 100%)

## C[S+]([O-])CC(C)(C)NC(=O)c1c(I)cccc1C(=O)Nc1cccc(S(F)(F)(F)(F)F)c1 (stereo not drawn) [3-6]
[1]
  Test Example 1: insecticidal effect (mortality criterion): A (Mortality 100%)
[2]
  Test Example 2: insecticidal effect (mortality criterion): D (Mortality 79–50%)
[3]
  Test Example 3: insecticidal effect (mortality criterion): E (Mortality 49% or less)

## CC(C)(CS(C)(=O)=O)NC(=O)c1c(I)cccc1C(=O)Nc1cccc(S(F)(F)(F)(F)F)c1 [3-7]
[1]
  Test Example 1: insecticidal effect (mortality criterion): A (Mortality 100%)
[2]
  Test Example 2: insecticidal effect (mortality criterion): A (Mortality 100%)
[3]
  Test Example 3: insecticidal effect (mortality criterion): A (Mortality 100%)

## CSCC(C)(C)NC(=O)c1c(I)cccc1C(=O)Nc1cccc(S(F)(F)(F)(F)F)c1Cl [3-24]
[1]
  Test Example 1: insecticidal effect (mortality criterion): A (Mortality 100%)
[2]
  Test Example 2: insecticidal effect (mortality criterion): A (Mortality 100%)
[3]
  Test Example 3: insecticidal effect (mortality criterion): A (Mortality 100%)

## CC(C)(CS(C)(=O)=O)NC(=O)c1c(I)cccc1C(=O)Nc1cccc(S(F)(F)(F)(F)F)c1Cl [3-26]
[1]
  Test Example 1: insecticidal effect (mortality criterion): A (Mortality 100%)
[2]
  Test Example 2: insecticidal effect (mortality criterion): A (Mortality 100%)
[3]
  Test Example 3: insecticidal effect (mortality criterion): A (Mortality 100%)

Reference: patent publication US7151195B2, “Phthalamide derivative, agricultural or horticultural insecticide, and method of use thereof” (Bayer CropScience LP, priority 2002, dated 2006)
